{
  "source": "patent US8738114B2",
  "about": "“Systems and methods for measuring and modeling in vivo manganese ion transport in a subject” (Celtrast LLC, priority 2009, dated 2014)",
  "target": "NCX (Mus musculus, UniProt P70414)",
  "experiment": "In vivo MEMRI Mn^2+ efflux study with NCX inhibition by SEA0400 (dose dependent groups), pharmacokinetic Models 1-3",
  "details": "for Mn^2+ efflux rate following inhibition of the NCX, % of the initial, pre-SEA0400 administration, rate: Model 2 prediction, maximum inhibition",
  "key": {"[1]": {"details": "Model 1, 10 mg/kg SEA0400 i.p. 1 h post-190 nmoles/g BW MnCl2"}, "[2]": {"details": "Model 1, 20 mg/kg SEA0400 i.p. 1 h post-190 nmoles/g BW MnCl2"}, "[3]": {"details": "Model 1, 34 mg/kg SEA0400 i.p. 1 h post-190 nmoles/g BW MnCl2"}, "[4]": {"details": "Model 1, 50 mg/kg SEA0400 i.p. 1 h post-190 nmoles/g BW MnCl2"}, "[5]": {"details": "Model 2, 10 mg/kg SEA0400 i.p. 1 h post-190 nmoles/g BW MnCl2"}, "[6]": {"details": "Model 2, 20 mg/kg SEA0400 i.p. 1 h post-190 nmoles/g BW MnCl2"}, "[7]": {"details": "Model 2, 34 mg/kg SEA0400 i.p. 1 h post-190 nmoles/g BW MnCl2"}, "[8]": {"details": "Model 2, 50 mg/kg SEA0400 i.p. 1 h post-190 nmoles/g BW MnCl2"}, "[9]": {"details": "Model 3, 10 mg/kg SEA0400 i.p. 1 h post-190 nmoles/g BW MnCl2"}, "[10]": {"details": "Model 3, 20 mg/kg SEA0400 i.p. 1 h post-190 nmoles/g BW MnCl2"}, "[11]": {"details": "Model 3, 34 mg/kg SEA0400 i.p. 1 h post-190 nmoles/g BW MnCl2"}, "[12]": {"details": "Model 3, 50 mg/kg SEA0400 i.p. 1 h post-190 nmoles/g BW MnCl2"}},
  "procedure": "The mice were randomized into three groups for efflux studies: 1) MnCl2 dose dependent (65±0.2, 119±2, 190±3 (Control) and 283±6 nmoles/g body weight MnCl2, n=40 mice) 2) SEA0400 dose dependent (190±1 nmoles/g BW MnCl2 infusion, followed 1 hour later with an i.p. injection of 10±0.2, 20±0.2, 34±0.8 and 50±0.2 mg/kg SEA0400, n=30) 3) Myocardial infarction (MI, 190±0.1 nmoles/g BW MnCl2, n=9)\nIn order to model the drug pharmacokinetics of SEA0400, and therefore the Mn^2+ transport mechanisms, an equation for the drug plasma concentration (Cp) was used (Eq. [2]), commonly applied to pharmaceutical modeling:\nIn Eq. [2] F is the fraction of drug absorbed, Vp is the apparent volume of distribution of the drug and D is the drug dose administered. The rate parameters, kel and kabs represent the drug elimination and absorption rates respectively.\nThe form for the Mn^2+ transfer rate parameter k21 was given by Eq. [3], under the assumption that k21 decreases linearly with increasing SEA0400 plasma concentration, Cp, as in Eq. [2]:\nParameter k21,initial is defined as the pre-pharmaceutical administration transfer parameter, k21(t<1 h). […] All the transfer rate and pharmaceutical parameters were therefore time-independent with the exception of k0 and k21 following SEA0400 administration.\nThe pharmaceutical absorption and elimination half-live (t1/2abs and t1/2el respectively) are given in Eq. [4] and Eq. [5].\nSolutions to the ODEs were acquired using simultaneous 4th Order Runge-Kutta numerical methods in Matlab (Nantick, Mass.). Temporal in vivo cardiac Mn^2+ content data and ex vivo blood Mn^2+ content data were fit simultaneously to acquire least square fits for the first order rate parameters, kab. Least square fits of the pharmaceutical parameters, kabs and kel were also obtained using the SEA0400 groups, assuming that kab was unchanged from the control 190 nmoles/g group. […] The only constraint made by the least square fitting technique was that the transfer rate parameters and pharmaceutical parameters were ≧0.\nLeast square curve fitting techniques are inherently sensitive to the initial estimates of kab. For a given initial estimate of kab the fit may converge on solutions at local minima, which may not be the global minimum. In order to minimize potential errors caused by this effect, all the models employed a global search over a wide range in parameter space to find the initial estimates of kab corresponding to lowest fit residuals. To use the most realistic initial estimates for the fitting function, simultaneous solutions were obtained for the control 190 nmoles/g heart and 50 mg/kg SEA0400 heart efflux data, as well as the corresponding blood efflux data.\nFor the SEA0400 groups, a similar set of simultaneous ODEs was used, with k21 modeled as a function of time (Eq. [3]).\nk21total and k2comp are the total transfer rates from compartment 2 to the blood, and from compartment 2 to compartments 3 and 4, respectively. These two parameters were estimated via the modeling technique.",
  "data": [
    {"smiles": "CCOc1ccc(Oc2ccc(OCc3cc(F)ccc3F)cc2)c(N)c1", "note": "[SEA0400]", "values": [
      {"measurement": "kabs drug absorption rate", "setting": "[1]", "result": 671, "unit": "h⁻¹"},
      {"measurement": "kel drug elimination rate", "setting": "[1]", "result": 1.7, "unit": "h⁻¹"},
      {"measurement": "kabs drug absorption rate", "setting": "[2]", "result": 672, "unit": "h⁻¹"},
      {"measurement": "kel drug elimination rate", "setting": "[2]", "result": 0.51, "unit": "h⁻¹"},
      {"measurement": "kabs drug absorption rate", "setting": "[3]", "result": 680, "unit": "h⁻¹"},
      {"measurement": "kel drug elimination rate", "setting": "[3]", "result": 0.49, "unit": "h⁻¹"},
      {"measurement": "kabs drug absorption rate", "setting": "[4]", "result": 66, "unit": "h⁻¹"},
      {"measurement": "kel drug elimination rate", "setting": "[4]", "result": 0.14, "unit": "h⁻¹"},
      {"measurement": "kabs drug absorption rate", "setting": "[5]", "result": 68, "unit": "h⁻¹"},
      {"measurement": "kel drug elimination rate", "setting": "[5]", "result": 1.6, "unit": "h⁻¹"},
      {"measurement": "kabs drug absorption rate", "setting": "[6]", "result": 149, "unit": "h⁻¹"},
      {"measurement": "kel drug elimination rate", "setting": "[6]", "result": 0.47, "unit": "h⁻¹"},
      {"measurement": "kabs drug absorption rate", "setting": "[7]", "result": 115, "unit": "h⁻¹"},
      {"measurement": "kel drug elimination rate", "setting": "[7]", "result": 0.41, "unit": "h⁻¹"},
      {"measurement": "kabs drug absorption rate", "setting": "[8]", "result": 118, "unit": "h⁻¹"},
      {"measurement": "kel drug elimination rate", "setting": "[8]", "result": 0.17, "unit": "h⁻¹"},
      {"measurement": "Mn^2+ efflux rate following inhibition of the NCX, % of the initial, pre-SEA0400 administration, rate", "setting": "10 mg/kg SEA0400", "result": 8.2, "unit": "%"},
      {"measurement": "Mn^2+ efflux rate following inhibition of the NCX, % of the initial, pre-SEA0400 administration, rate", "setting": "20 mg/kg SEA0400", "result": 1.8, "unit": "%"},
      {"measurement": "Mn^2+ efflux rate following inhibition of the NCX, % of the initial, pre-SEA0400 administration, rate", "setting": "35 mg/kg SEA0400", "result": 1.6, "unit": "%"},
      {"measurement": "Mn^2+ efflux rate following inhibition of the NCX, % of the initial, pre-SEA0400 administration, rate", "setting": "50 mg/kg SEA0400", "result": 1.0, "unit": "%"},
      {"measurement": "kabs drug absorption rate", "setting": "[9]", "result": 85, "unit": "h⁻¹"},
      {"measurement": "kel drug elimination rate", "setting": "[9]", "result": 1.1, "unit": "h⁻¹"},
      {"measurement": "kabs drug absorption rate", "setting": "[10]", "result": 118, "unit": "h⁻¹"},
      {"measurement": "kel drug elimination rate", "setting": "[10]", "result": 0.44, "unit": "h⁻¹"},
      {"measurement": "kabs drug absorption rate", "setting": "[11]", "result": 9.4, "unit": "h⁻¹"},
      {"measurement": "kel drug elimination rate", "setting": "[11]", "result": 0.33, "unit": "h⁻¹"},
      {"measurement": "kabs drug absorption rate", "setting": "[12]", "result": 149, "unit": "h⁻¹"},
      {"measurement": "kel drug elimination rate", "setting": "[12]", "result": 0.06, "unit": "h⁻¹"},
      {"measurement": "share of Mn^2+ efflux that occurs via the NCX", "setting": "model prediction, highest dose of SEA0400", "result": "approximately 99%"}
    ]}
  ]
}
